The text below walks through data of patent publication US20260308102A1, “18F-FLUORINATED FATTY ACIDS AND USES THEREOF” (Ratio Therapeutics, Inc., priority 2022, published 2026).

The structures appear in SMILES notation. “Also recorded” adds a separate entry of the source.

Data set [1] can be described thus: Static μPET/CT imaging at 45 min p.i. of short chain 18F-fatty acids and esters (Example 1).
Protocol: FIG. 1 is a series of Static Sagital and Coronal Maximum Intensity Projections (MIPs) μPET/CT images obtained at 45 minutes p.i. for the compounds studied (excluding palmitate) in normally fed animals. Imaging with ethyl-protected intermediates are also shown (e-).
Wild type immunocompetent animals were used, both for imaging and biodistribution experiments.
The activity was administered to the awake animals (n=2) via tail-vein injection (9.25-18.5 MBq, or 250-500 μCi) and placed back into their cages. At 35 minutes post injection (p.i.), animals were place in an acrylic enclosure under 4% isoflurane anesthesia in O2 for initial knockdown, then reduced to 2.5%. Once asleep, animals were placed in the imaging holder and a 5-minute CT was followed by a 15-minute static PET (approx. 45-60 min p.i., or 10-15 min after completion of anesthesia). As before, animals were allowed to recover from the anesthesia before returning to the holding facility for decay. When warranted, animals were studied with regular feeding and fasting for 6-12 hours to evaluate any difference in biodistribution.
Data set [2] in a line: Dynamic PET imaging (60 min) of butyrate analogues (Example 1). The data set is classed as in vivo, wild type mice. The note with it: for in vivo behavior / biodistribution, comparison of isomers: 4-[^18F]FB vs 2-[^18F]FB. As for the experimental part: FIG. 10 is a series of dynamic μPET/CT images depicting the biodistribution of 2-[^18F]FB and 4-[^18F]FB in wild type mice. Stable biodistribution was achieved after 45 minutes p.i.
Animals were anesthetized under 3% isoflurane in 02. […] Animals were allowed to recover from anesthesia and were carefully observed before moving them back to the holding facility for decay. Data was reconstructed as five 12-minute frames and as twelve 5-minute frames for analysis.

The nature of data set [3]: Static μPET/CT imaging at 45 min p.i. of medium and long chain 18F-fatty acids (Example 2). The note with it: for brain uptake: includes earlier short chain data; for defluorination (bone uptake) / metabolic rate: static PET.
Protocol: All animal experiments were approved by the Albert Einstein College of Medicine IACUC. Wild type immunocompetent animals were used for imaging. Feeding and water conditions were maintained throughout the study. Animals were never fasted.
The agent was administered to awake animals via tail-vein injection (9.25-18.5 MBq, or 250-500 μCi, n=2) and placed back into their cages. At 40 minutes post injection (henceforth p.i.), animals were place in an acrylic enclosure under 4% isoflurane anesthesia in O2 for initial knockdown, then reduced to 2.5%. Once asleep, animals were placed in the imaging holder and a 5-minute CT followed by a 15-minute static PET were performed (Approx. 45-60 min p.i.). As before, animals were allowed to recover from the anesthesia before returning to the holding facility for radiotracer decay. Images were analyzed by drawing regions of interest (ROIs) and quantifying the amount of tracer present as percent of injected activity per cubic centimeter (% IA/cc). Blood, urinary bladder and gut activity were determined by computer drawing of 2 mm diameter ROI spheres in the left cardiac ventricle, the urinary bladder and the areas of specific gut uptake, respectively. Brain, liver and kidney ROIs were drawn CT-aided and the radioactive contents were later quantified.
Data set [4] relates to monocarboxylate transporter (MCT). In words: PET imaging of 2-[^18F]FP with lactate displacement and MCT inhibition by AZD-3965 co-injection. The format is in vivo, wild type mice. From the text:
FIG. 2 is a graph depicting PET-derived quantification of brain and pancreatic (“gut”) uptake of 2-[^18F]FP and 2-(L)-[^18F]FP under different conditions (n=2).
FIG. 12 is a collection of dynamic μPET/CT images that compare different imaging conditions including blocking with the MCT1 blocker AZD3965.
Further experiments to test the possibility of using 2-[^18F]FP and 2-(L)-[^18F]FP as a lactate surrogate, including co-injection with (L)Lactate, (D)Lactate, and AZD-3965 to produce displacement and monocarboxylate transporter (MCT) inhibition (respectively) were conducted and results can be observed in FIG. 2. The corresponding μPET/CT images can be found in the FIG. 12.
The unique characteristics of 2-[^18F]FP open many possibilities to study cancers and brain/CNS function and metabolism. As with 2-[^18F]FB the enantiomers have not been separated for either production or quality control. However, parametric production of 2-(L)-[^18F]FP was possible since the ethyl(2R)-2-{[(4-methylphenyl) sulfonyl]oxy}propanoate is commercially available. This compound's ability to resemble (L)-lactate has been contested in vitro, with confounding in vivo results. For comparison we co-injected 2-[^18F]FP separately with 0.5 and 5 mg/kg (L) and (D) sodium lactate (an increase of 5 and 50% respectively in homeostatic lactate circulation), and 5 mg/Kg of AZD-3965, an monocarboxylate transporter (MCT) 1 and 2 inhibitor (Ki(MCT1)=3 nM, Ki(MCT2)=20 nM) in the same animal model.

For data set [5], the system named is MCT1. The note with it: in vitro, Van Hée et al.; cited from earlier work.
A short description of data set [6]: Stability in HCl and saline solution. The data set is classed as physicochemical. The note with it: for stability in HCl: HCl lower than 3 M.
The target in data set [7] is MCT2. The note with it: role: inhibitor; cited from earlier work.
Data set [8] addresses MCT1. The note with it: role: inhibitor; cited from earlier work.
For data set [9] the following is noted: cancer patients; cited from earlier work.
The mark [10] stands for this setting: co-injection with AZD-3965, 5 mg/Kg.

As for `CCC([18F])C(=O)O` (racemic) [2-[^18F]FB, 2-[^18F]Fluorobutyrate], in data set [1] (fasted vs fed, 45 min p.i.), the “brain uptake, fasted vs fed” value is on record as “small reduction in brain uptake (not significant)”; the “circulatory activity, fasted vs fed” value is recorded as “slight increase in circulatory activity”; the “gut uptake, fasted vs fed” value is on record as “modest reduction; also recorded: reduction in the aforementioned specifically located gut uptake”; the “metabolic activity / defluorination, fasted vs fed” value is given as “reduced defluorination; also recorded: slight decrease in metabolic rate”. The brain/CNS uptake entry in [1] (static PET, 45 min p.i., fed) is given as “marked brain uptake”. The “brain uptake with or without isoflurane anesthesia and fasting” value in data set [1] (with or without isoflurane, with or without fasting) is “remained unchanged with or without isoflurane anesthesia, and with or without fasting”. Moreover, in [2], the “brain/central nervous system (CNS) uptake” value is given as “the highest of the studied series”; the gut uptake entry is on record as “seemingly specific gut uptake”; the “in vivo behavior / biodistribution, comparison of isomers” value is “behaved very differently in vivo”. Moreover, the brain uptake result in data set [3] (45 min p.i.) was “High brain uptake”. For the same molecule, the brain uptake entry in [3] (45 min p.i., listed as 2-[^18F]Fluorobutyrate) was “peaking”.

Take `CCCCC([18F])C(=O)O` (racemic) [2-[^18F]FC, 2-Fluorocaproate]: in data set [3] (45 min p.i.), the specific abdominal uptake entry is “not found”, the brain uptake entry was “High brain uptake; also recorded: the longest substrate absorbed by the brain” and the “defluorination (bone uptake)” value was “Almost no defluorination”.

As to `CCCCCCC([18F])C(=O)O` (racemic) [2-[^18F]FCy, 2-Fluorocaprylate], in data set [3] (45 min p.i.), the specific abdominal uptake result was “not found”, the brain uptake entry is on record as “significantly reduced” and the “defluorination (bone uptake)” value is “Almost no defluorination”.

`CCCCCC([18F])C(=O)O` (racemic) [2-[^18F]FE, 2-Fluoroenanthate]: in [3] (45 min p.i.), the specific abdominal uptake result was “not found”, the brain uptake result is given as “significantly reduced; also recorded: all brain uptake is stopped; also recorded: stops abruptly” and the “defluorination (bone uptake)” value is “small bone uptake”.

As for `CC([18F])C(=O)O` (racemic) [2-[^18F]FP, 2-[^18F]Fluoropropionate], the “apparent stability in vivo” value in [1] (no metabolite analysis performed) was “seems to be stable in vivo in the studied period; also recorded: high apparent probe stability in vivo”. In data set [1] (static PET, 45 min p.i.), the blood circulation time entry is listed as “decreased circulation times” and the defluorination in vivo entry is recorded as “only minor defluorination was observed; also recorded: no defluorination was observed”. In addition, the brain/CNS uptake result in data set [1] (static PET, 45 min p.i., fed) is “maintained CNS uptake; also recorded: specific uptake in brain and the central nervous system; also recorded: marked brain uptake”. Also, the “abdominal uptake under different imaging conditions” value in [4] (different imaging conditions (fasting, lactate)) is “remained stable and not affected by the different imaging conditions”. The “average brain uptake, fasting or co-injection with (L)-lactate” value in [4] (fasting, co-injection with 5 mg/kg (L)-lactate, differences not significant) is listed as “slight increase in average brain uptake”. Further, the brain uptake result in [3] (45 min p.i.) was “High brain uptake”. Moreover, in data set [5], the MCT1-dependent accumulation result was “does not accumulate in a MCT1-dependent manner”.

In the case of `CCCCCCCCCCCCCCC([18F])C(=O)O` (racemic) [2-[^18F]FPalm, 2-[^18F]Fluorohexadecanoic acid], in data set [3] (45 min p.i.), the blood content result was “reduced”, the liver uptake result is “predominant liver uptake”, the specific abdominal uptake result is “not found” and the brain uptake entry is listed as “significantly reduced”. In addition, the “defluorination (bone uptake)” value in data set [3] (45 min p.i.) was “slightly higher defluorination rate”.

For the molecule `CCCC([18F])C(=O)O` (racemic) [2-[^18F]FV, 2-Fluorovalerate], in data set [3] (45 min p.i.), the specific abdominal uptake result is listed as “evident”, the brain uptake result is on record as “High brain uptake” and the “defluorination (bone uptake)” value was “small bone uptake”.

Consider `CC(C)([18F])C(=O)O` [2-[^18F]FIB, 2-[^18F]Fluoroisobutyrate], for which, in data set [1] (static PET, 45 min p.i.), the blood circulation time result is on record as “long circulation time”, the defluorination in vivo result was “without defluorination” and the general biodistribution result was “non-specificity”. The brain/CNS uptake entry in data set [1] (static PET, 45 min p.i., fed) is “marked brain uptake in contrast to their branched congener”.

As to `CC([18F])CC(=O)O` (stereo not drawn) [3-[^18F]FB, 3-[^18F]Fluorobutyrate], in [6], the “stability in HCl” value is “not stable” and the “stability in saline solution” value was “decomposed immediately”.

In the case of `O=C(O)CC[18F]` [3-[^18F]FP, 3-[^18F]Fluoropropionate], in data set [6], the “stability in HCl” value is “not stable” and the “stability in saline solution” value is on record as “decomposed immediately”.

Regarding `O=C(O)CCC[18F]` [4-[^18F]FB, 4-[^18F]Fluorobutyrate], in data set [1] (fasted vs fed, 45 min p.i.), the “circulatory activity, fasted vs fed” value is on record as “slight increase in circulatory activity” and the “metabolic activity / defluorination, fasted vs fed” value is recorded as “reduced defluorination; also recorded: reduction in metabolic activity was especially noticeable; also recorded: slight decrease in metabolic rate”. For the same molecule, the “in vivo behavior / biodistribution, comparison of isomers” value in data set [2] is listed as “behaved very differently in vivo”.

As to `O=C(O)CCCC[18F]` [5-[^18F]FV, 5-Fluorovalerate], the metabolic rate entry in [3] (45 min p.i.) is “much faster metabolic rate than that of 6-[^18F]FC and 8-[^18F]FCy”.

As to `O=C(O)CCCCCC[18F]` [7-[^18F]FE, 7-Fluoroenanthate], in data set [3] (45 min p.i.), the metabolic rate result is “much faster metabolic rate than that of 6-[^18F]FC and 8-[^18F]FCy”.

Consider `O=C(O)CCCCCCCCCCCCCCC[18F]` [16-[^18F]FPalm, 16-[^18F]Fluorohexadecanoic acid], for which the “bright spot in liver / autopsy finding” value in data set [3] (one animal) is recorded as “a bright spot was found in one the animal's liver, but later autopsy did not revealed any interesting finding”. For the same molecule, the “defluorination (bone uptake)” value in [3] (45 min p.i.) is given as “faster for the 16-substituted compound, although much slower in contrast to its MCFA n-substituted congeners”.

Take `Cc1[nH]nc(C(F)(F)F)c1Cc1sc2c(c1C(=O)N1C[C@](C)(O)CO1)c(=O)n(C)c(=O)n2C(C)C` [AZD-3965]: the inhibitory constant (Ki) (as a rule, a measure of affinity in units of concentration, obtained from inhibition or displacement) in data set [7] was 20 nM. Also, the “blocking of gut uptake by AZD-3965” value in data set [4] (co-injection with AZD-3965) was “selectively blocked”. In data set [4] (setting [10]), the “blocking of uptake / biodistribution by AZD-3965” value is “blocked the overall biodistribution of 2-[^18F]FP; also recorded: significant blocking of fatty acid uptake” and the “excretion with AZD-3965 co-injection” value is “almost complete excretion; also recorded: increased excretion”. In addition, the Ki in data set [8] was 3 nM.

Take `CC(=O)O` [[^11C]Acetate]: the “uptake in comparison with [^18F]FDG” value in [9] is listed as “mutually exclusive”.

For `O=C(O)C[18F]` [[^18F]FA, [^18F]Fluoroacetate], the blood circulation time entry in data set [1] (static PET, 45 min p.i.) is recorded as “decreased circulation times”. Moreover, in data set [1] (static PET, 45 min p.i., fed), the brain/CNS uptake entry is given as “maintained CNS uptake” and the specific gut uptake result is recorded as “highest uptake”. Besides, in data set [3] (45 min p.i.), the brain uptake result is listed as “High brain uptake”.

Take `CCOC(=O)C([18F])CC` (stereo not drawn) [e-2-[^18F]FB, Ethyl 2-[^18F]Fluorobutyrate]: in data set [1] (static PET, 45 min p.i.), the blood circulation time result is “slightly longer blood circulation” and the general biodistribution result is “almost identical biodistribution”.

Take `CCOC(=O)CC(C)[18F]` (stereo not drawn) [e-3-[^18F]FB, Ethyl 3-[^18F]Fluorobutyrate]: in data set [6], the “stability in HCl” value is on record as “not stable” and the “stability in saline solution” value is reported as “decomposed immediately”.

Regarding `CCOC(=O)CC[18F]` [e-3-[^18F]FP, Ethyl 3-[^18F]Fluoropropionate], in data set [6], the “stability in HCl” value is listed as “not stable” and the “stability in saline solution” value is listed as “decomposed immediately”.

As for `CCOC(=O)CCC[18F]` [e-4-[^18F]FB, Ethyl 4-[^18F]Fluorobutyrate], in data set [1] (static PET, 45 min p.i.), the blood circulation time entry is listed as “slightly longer blood circulation” and the general biodistribution result is given as “almost identical biodistribution”.
